According to patent publication US8263596B2, “Kinase inhibitors and method of treating cancer” (University Health Network, priority 2010, dated 2012):
Where a name gives a salt, the structure may show the parent alone.

Tests used:
SW620 colon cancer cells = format: cell-based; settings: Homo sapiens, SW-620, 120 h, read-out: Cell Line GI50 Range SW-620
A549 lung cancer cells = format: cell-based; settings: Homo sapiens, A549, 120 h, read-out: Cell Line GI50 Range A-549
Aurora B = Aurora B (Homo sapiens, UniProt Q96GD4); experiment: Aurora B inhibition assay (Z-Lyte); format: biochemical; settings: read-out: IC50 Ranges Aurora B
Method: Aurora B inhibition was determined using the Z-Lyte assay kit from Invitrogen. […] The % inhibition values were determined according to the manufacturer's directions and IC50 values were obtained using a non-linear 4 point logistic curve fit (XLfit4, IDBS)

Aurora A = target: T1, Aurora A (Homo sapiens, UniProt O14965); experiment: Aurora A inhibition assay (Z-Lyte); format: biochemical
T1 sequence (O14965 1-403): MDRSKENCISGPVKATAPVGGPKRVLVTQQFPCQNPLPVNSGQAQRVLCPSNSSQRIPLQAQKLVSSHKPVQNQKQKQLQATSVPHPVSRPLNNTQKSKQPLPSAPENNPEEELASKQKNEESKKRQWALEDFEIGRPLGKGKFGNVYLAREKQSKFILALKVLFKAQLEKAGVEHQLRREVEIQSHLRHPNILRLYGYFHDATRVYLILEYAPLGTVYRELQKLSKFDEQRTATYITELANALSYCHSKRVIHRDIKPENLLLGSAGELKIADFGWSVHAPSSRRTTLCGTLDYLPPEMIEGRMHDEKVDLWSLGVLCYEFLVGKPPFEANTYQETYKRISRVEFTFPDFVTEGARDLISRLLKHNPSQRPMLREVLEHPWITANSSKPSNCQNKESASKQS

human PLK4 = target: T2, human PLK4 (Homo sapiens, UniProt O00444); experiment: PLK4 inhibition assay (indirect ELISA); format: biochemical; settings: read-out: IC50 Ranges PLK4
T2 construct: amino terminal GST fusion of residues 1-391 of human PLK4; made in house; host or cells: E. coli
T2 sequence (O00444 1-391): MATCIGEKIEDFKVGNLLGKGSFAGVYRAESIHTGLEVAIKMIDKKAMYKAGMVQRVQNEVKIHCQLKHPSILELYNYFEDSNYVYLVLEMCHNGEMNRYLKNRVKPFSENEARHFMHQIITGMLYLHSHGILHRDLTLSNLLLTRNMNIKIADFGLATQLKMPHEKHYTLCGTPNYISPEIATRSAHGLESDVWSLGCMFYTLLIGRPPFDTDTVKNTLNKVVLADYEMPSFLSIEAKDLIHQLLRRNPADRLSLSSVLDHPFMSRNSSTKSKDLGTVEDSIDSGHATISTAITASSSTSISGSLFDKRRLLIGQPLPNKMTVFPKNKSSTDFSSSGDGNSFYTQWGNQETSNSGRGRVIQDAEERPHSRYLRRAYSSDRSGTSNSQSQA
Method: PLK4 activity was measured using an indirect ELISA detection system. […] The colourimetric reaction was allowed to continue for 5 minutes, followed by addition of stop solution (0.5 N sulphuric acid), and quantified by detection at 450 nm with either a monochromatic or filter based plate reader (Molecular Devices M5 or Beckman DTX880, respectively).
Compounds were pre-incubated in the presence of enzyme for 15 minutes prior to addition of ATP and the activity remaining quantified using the above described activity assay. […] The IC50 value was determined using a non-linear 4 point logistic curve fit (XLfit4, IDBS) with the formula; (A+(B/(1+((x/C)^D)))), where A=background value, B=range, C=inflection point, D=curve fit parameter.

Sequence of Aurora B (Q96GD4 whole entry): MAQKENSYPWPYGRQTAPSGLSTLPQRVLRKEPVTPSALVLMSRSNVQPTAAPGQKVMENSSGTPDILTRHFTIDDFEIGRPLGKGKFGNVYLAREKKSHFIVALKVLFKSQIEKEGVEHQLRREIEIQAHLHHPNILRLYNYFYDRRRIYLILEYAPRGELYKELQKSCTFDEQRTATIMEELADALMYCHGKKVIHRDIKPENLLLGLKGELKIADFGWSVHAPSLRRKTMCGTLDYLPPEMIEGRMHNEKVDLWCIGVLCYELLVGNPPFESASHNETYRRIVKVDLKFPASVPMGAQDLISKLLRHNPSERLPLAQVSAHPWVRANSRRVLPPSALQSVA

Row | Compound | GI50 (SW620 colon cancer cells) | GI50 (A549 lung cancer cells) | IC50 (Aurora B) | inhibition at 1 µM (Aurora A) | IC50 (human PLK4)
1 | O=C1Nc2ccccc2[C@]12CC2c1ccc2cn[nH]c2c1 (mixture of isomers) [Example A2, (1R*,2S*)-2-(1H-indazol-6-yl)spiro[cyclopropane-1,3′-indolin]-2′-one] | > 10 µM | > 10 µM | – | – | –
2 | COc1ccc2c(c1)[C@]1(CC1c1ccc3c(-c4ccc(N5CCN(C)CC5)nc4)n[nH]c3c1)C(=O)N2 (mixture of isomers) [Example A14, (1R*,2S*)-5′-Methoxy-2-(3-(6-(4-methylpiperazin-1-yl)pyridin-3-yl)-1H-indazol-6-yl)spiro[cyclopropane-1,3′-indolin]-2′-one dihydrochloride] | < 0.1 µM | < 0.1 µM | – | – | –
3 | COc1ccc2c(c1)[C@]1(C[C@H]1c1ccc3c(-c4ccc(N5CCN(C)CC5)cc4)n[nH]c3c1)C(=O)N2 (relative stereo) [Example A38, (1R*,2S*)-5′-Methoxy-2-(3-(4-(4-methylpiperazin-1-yl)phenyl)-1H-indazol-6-yl)spiro[cyclopropane-1,3′-indolin]-2′-one] | 0.1 to 1 µM | – | < 0.1 µM | – | –
4 | COc1ccc2c(c1)[C@]1(C[C@H]1c1ccc3c(-c4ccc(N5CCC(O)CC5)nc4)n[nH]c3c1)C(=O)N2 (relative stereo) [Example A117, (1R*,2S*)-2-(3-(6-(4-hydroxypiperidin-1-yl)pyridin-3-yl)-1H-indazol-6-yl)-5′-methoxyspiro[cyclopropane-1,3′-indolin]-2′-one 2,2,2-trifluoroacetate] | > 10 µM | 1 to 10 µM | 0.1 to 1 µM | – | –
5 | COc1ccc2c(c1)[C@]1(C[C@H]1c1ccc3c(-c4ccc(C5CCNCC5)cc4)n[nH]c3c1)C(=O)N2 (relative stereo) [Example A122, (1R*,2S*)-5′-methoxy-2-(3-(4-(piperidin-4-yl)phenyl)-1H-indazol-6-yl)spiro[cyclopropane-1,3′-indolin]-2′-one 2,2,2-trifluoroacetate] | < 0.1 µM | < 0.1 µM | – | – | –
6 | CCc1ccc2c(c1)[C@]1(C[C@H]1c1ccc3c(-c4ccc(N5CCN(C)CC5)cc4)n[nH]c3c1)C(=O)N2 (relative stereo) [Example A142, (1R*,2S*)-5′-ethyl-2-(3-(4-(4-methylpiperazin-1-yl)phenyl)-1H-indazol-6-yl)spiro[cyclopropane-1,3′-indolin]-2′-one 2,2,2-trifluoroacetate] | – | – | – | < 50% | –
7 | COc1ccc2c(c1)[C@]1(C[C@H]1c1ccc3c(-c4ccc(C(=O)N5CCN(C)CC5)cc4)n[nH]c3c1)C(=O)N2 (relative stereo) [Example A148, (1R*,2S*)-5′-methoxy-2-(3-(4-(4-methylpiperazine-1-carbonyl)phenyl)-1H-indazol-6-yl)spiro[cyclopropane-1,3′-indolin]-2′-one 2,2,2-trifluoroacetate] | 1 to 10 µM | 0.1 to 1 µM | 0.1 to 1 µM | – | < 0.1 µM
8 | COc1cc2c(cc1OC)[C@]1(C[C@H]1c1ccc3c(/C=C/c4ccc(CN(C)C)cc4)n[nH]c3c1)C(=O)N2 (relative stereo) [Example A168, (1R*,2S*)-(E)-2-(3-(4-((dimethylamino)methyl)styryl)-1H-indazol-6-yl)-5′,6′-dimethoxyspiro[cyclopropane-1,3′-indolin]-2′-one 2,2,2-trifluoroacetate] | – | – | < 0.1 µM | – | < 0.1 µM
9 | Cc1ccc2c(c1)[C@]1(C[C@H]1c1ccc3c(/C=C/c4ccc(CN(C)C)cc4)n[nH]c3c1)C(=O)N2 (relative stereo) [Example A169, (1R*,2S*)-(E)-2-(3-(4-((dimethylamino)methyl)styryl)-1H-indazol-6-yl)-5′-methylspiro[cyclopropane-1,3′-indolin]-2′-one 2,2,2-trifluoroacetate] | – | < 0.1 µM | – | – | –
10 | CC(C)CCN1C(=O)[C@@]2(C[C@H]2c2ccc3c(/C=C/c4ccc(CN(C)C)cc4)n[nH]c3c2)c2ccccc21 (relative stereo) [Example A176, (1R*,2S*)-(E)-2-(3-(4-((dimethylamino)methyl)styryl)-1H-indazol-6-yl)-1′-isopentylspiro[cyclopropane-1,3′-indolin]-2′-one] | – | – | 0.1 to 1 µM | – | < 0.1 µM
11 | COc1ccc2c(c1)[C@]1(C[C@H]1c1ccc3c(/C=C/c4ccc(N5CCNCC5)cc4)n[nH]c3c1)C(=O)N2 (relative stereo) [Example A182, (1R*,2S*)-5′-methoxy-2-(3-(4-(piperazin-1-yl)styryl)-1H-indazol-6-yl)spiro[cyclopropane-1,3′-indolin]-2′-one 2,2,2-trifluoroacetate] | – | – | < 0.1 µM | – | < 0.1 µM
12 | COc1ccc2c(c1)[C@]1(C[C@H]1c1ccc3c(/C=C/c4ccc(N5CCN(C(C)C)CC5)cc4)n[nH]c3c1)C(=O)N2 (relative stereo) [Example A189, (1R*,2S*)-(E)-2-(3-(4-(4-isopropylpiperazin-1-yl)styryl)-1H-indazol-6-yl)-5′-methoxyspiro[cyclopropane-1,3′-indolin]-2′-one 2,2,2-trifluoroacetate] | – | – | < 0.1 µM | – | < 0.1 µM
13 | CCN1Cc2ccc(/C=C/c3n[nH]c4cc([C@@H]5C[C@@]56C(=O)Nc5ccc(OC)cc56)ccc34)cc2C1 (relative stereo) [Example A190, (1R*,2S*)-2-(3-((E)-2-(2-ethylisoindolin-5-yl)vinyl)-1H-indazol-6-yl)-5′-methoxyspiro[cyclopropane-1,3′-indolin]-2′-one 2,2,2-trifluoroacetate] | – | – | < 0.1 µM | – | < 0.1 µM
14 | O=C1Nc2ccc(F)cc2[C@]12C[C@H]2c1ccc2c(/C=C/c3ccc(N4CCOCC4)nc3)n[nH]c2c1 (relative stereo) [Example A207, (1R*,2S*)-5′-fluoro-2-(3-((E)-2-(6-morpholinopyridin-3-yl)vinyl)-1H-indazol-6-yl)spiro[cyclopropane-1,3′-indolin]-2′-one 2,2,2-trifluoroacetate] | – | – | < 0.1 µM | – | < 0.1 µM
15 | CN1CCN(c2ccc(-c3n[nH]c4cc([C@@H]5C[C@@]56C(=O)Nc5ccc(OC(F)F)cc56)ccc34)cn2)CC1 (relative stereo) [Example A209, (1R*,2S*)-5′-(difluoromethoxy)-2-(3-(6-(4-methylpiperazine-1-yl)pyridine-3-yl)-1H-indazol-6-yl)spiro[cyclopropane-1,3′-indolin]-2′-one 2,2,2-trifluoro acetate] | – | – | < 0.1 µM | – | < 0.1 µM
16 | COc1ccc2c(c1)[C@]1(C[C@H]1c1ccc3c(/C=C/c4ccc(N5CCOCC5)nc4)n[nH]c3c1)C(=O)N2 (relative stereo) [Example A213, (1R*,2S*)-5′-methoxy-2-(3-((E)-2-(6-morpholinopyridin-3-yl)vinyl)-1H-indazol-6-yl)spiro[cyclopropane-1,3′-indolin]-2′-one 2,2,2-trifluoroacetate] | – | – | < 0.1 µM | – | < 0.1 µM
17 | COc1ccc2c(c1)[C@]1(CC1c1ccc3c(/C=C/c4cc(F)c(CN(C)C)c(F)c4)n[nH]c3c1)C(=O)N2 (stereo in doubt) [Example A215, (1R*,2S*)-(E)-2-(3-(4-((dimethylamino)methyl)-3,5-difluorostyryl)-1H-indazol-6-yl)-5′-methoxyspiro[cyclopropane-1,3′-indolin]-2′-one 2,2,2-trifluoro acetate] | – | – | < 0.1 µM | – | < 0.1 µM
18 | COc1ccc2c(c1)C1(CC1c1ccc3c(I)n[nH]c3c1)C(=O)N2 (stereo not drawn) [Example A6, (1R*,2S*)- and (1R*,2R*)-2-(3-iodo-1H-indazol-6-yl)-5-methoxyspiro-[cyclopropane-1,3′-indolin]-2′-one] | – | – | 0.1 to 1 µM | – | < 0.1 µM
19 | CN1C(=O)[C@@]2(C[C@H]2c2ccc3c(/C=C/c4ccc(N5CCNCC5)cc4)n[nH]c3c2)c2ccccc21 [Example A90, (1R,2S)-(E)-1′-methyl-2-(3-(4-(piperazin-1-yl)styryl)-1H-indazol-6-yl)spiro[cyclopropane-1,3′-indolin]-2′-one hydrochloride] | < 0.1 µM | < 0.1 µM | – | – | –
20 | COc1ccc2c(c1)[C@]1(C[C@H]1c1ccc3c(/C=C/c4ccc(CN5CCOCC5)s4)n[nH]c3c1)C(=O)N2 [Example A105, (1R,2S)-5′-methoxy-2-(3-((E)-2-(5-(morpholinomethyl)thiophen-2-yl)vinyl)-1H-indazol-6-yl)spiro[cyclopropane-1,3′-indolin]-2′-one hydrochloride] | < 0.1 µM | < 0.1 µM | – | – | –
21 | COc1ccc2c(c1)[C@]1(C[C@H]1c1ccc3c(-c4ccc(N5CCC(N(C)C)CC5)cc4)n[nH]c3c1)C(=O)N2 [Example A120, (1R,2S)-2-(3-(4-(4-(dimethylamino)piperidin-1-yl)phenyl)-1H-indazol-6-yl)-5′-methoxyspiro[cyclopropane-1,3′-indolin]-2′-one 2,2,2-trifluoroacetate] | – | – | < 0.1 µM | – | < 0.1 µM
